Source: patent publication US12178846B2, “Methods of using gap junctions as therapeutic targets for the treatment of degenerative disorders of the retina” (The Research Foundation for The State University of New York, priority 2014, dated 2024)

Test system: RGCs in microbead-injected eyes
Experiment: Microbead-induced experimental glaucoma
Assay type: in vivo, mouse
Procedure: Experimental glaucoma in mice is induced by IOP elevation achieved by intracameral injections of 10 μm polystyrene microbeads (Invitrogen) as previously described (Chen H, et al., Invest Ophthalmol Vis Sci. 52:36-44 (2011)). The intracameral injections are made unilaterally with 2 μl of microbead suspension containing ˜7.2×106 beads using a glass micropipette attached to a microliter syringe. An equivalent volume of phosphate-buffered saline (PBS) is injected in contralateral eyes to serve as a control. Measurements of IOP are made with the commercially-available Tonolab tonometer (Colonial Medical Supply) and are performed weekly for up to 8 weeks after the microbeads injection. Measurements are made between […] and 12 PM, to minimize the effect of diurnal IOP variations. Six IOP measurements are made at each interval and averaged. Experimental glaucoma was induced by intracameral injections of polystyrene microbeads (Chen H, et al., Invest Ophthalmol Vis Sci. 52:36-44 (2011)) in one eye of wild type (WT) mice, connexin knockout (KO) mice and their […] (HET) control littermates, with sham injection of the second eye as control. IOP measurements were performed weekly and animals were sacrificed at 1, 4, or 8 weeks after initial bead injection. To access cell loss, RGCs and coupled ACs were retrogradely labeled with optic nerve injection of Neurobiotin and vertical retinal sections were counterstained with DAPI to determine overall nuclear counts. RGCs were also labeled by Brn3a antibody for identification. In addition to cell counts, overall retinal damage was assessed by GFAP expression. In some experiments gap junctions were blocked with meclofenamic acid (MFA) intravitreal weekly injections or genetically ablated in connexin KO mice (Cx36^−/−, Cx45^−/−, and Cx36^−/−/Cx45^−/− mice). Data are presented as mean±standard mean error. […] Statistical comparisons were assessed using Student's t-test. […]

SMILES: Cc1ccc(Cl)c(Nc2ccccc2C(=O)O)c1Cl [MFA, meclofenamic acid]
- RGC cell counts (MFA (50 μM) before and after bead injection, 8 weeks, control 50±1, untreated bead-injected 33±1, p>0.1 vs control): 47±4
- RGC counts, MFA alone (injection of MFA alone in control eyes): no detectable effect
- loss of cells (RGC+dAC) in the GCL (intravitreal MFA, microbead-injected eyes, 8 weeks): prevents loss of cells in GCL
